# Columns and labels:
# IVTT euk-mix = assay: EGFP expression in IVTT euk-mix, Western blot; assay type: biochemical; conditions: 1 hour, 30° C., 2 μg plasmid, 50 μL IVTT euk-mix
# Experimental: FIG. 10. Expression of the firefly luciferase and the Enhanced Green Fluorescent Protein (EGFP) in the presence of 3P. (a, top), Effect of 3P on luciferase protein expression. ε-Labeled biotinylated lysine-tRNAs is used to monitor the protein production by SDS-PAGE. (a, bottom), Histogram representing the relative quantification (density fold change) of the bands reported in the western blot (up), respect to the control (input, reaction mix without 3P). Reactions are carried out in a final volume of 50 μL of IVTT euk-mix. Error bars represent s.d. calculated from a duplicate experiment; (b, top-left), Scheme of the plasmid used for EGFP expression. Restriction sites used to clone the gene are reported. (b, top-right) The effect of 3P on EGFP expression monitored by Western Blot analysis. Reactions are performed in a final volume of 50 μL of IVTT euk-mix (up) or IVTT pro-mix (down). (b, bottom). Effect of 3P and 3PP on EGFP expression in a IVTT euk-mix.
# FIG. 15. Isolation of actively translated GFP transcripts after in vitro expression of EGFP protein. (a, left) The two plasmids used for EGFP expression (pBluescript II KS+, Genscript; pPR-IBA2, IBA, #2-1391-000). […] The relative abundance is reported as 2^(39-Cq), where 39 are the number of cycles and Cq is the quantification cycle. […]
# [1] = system: in vitro-cell free translation system (IVTT euk-mix); assay: In vitro cell-free expression of firefly luciferase (IVTT euk-mix), SDS-PAGE and luminescence; assay type: biochemical
# Experimental: FIG. 9. Effect of 3P and puromycin on in vitro-cell free expression of the luciferase gene. Luciferase protein production in the presence of different concentrations of puromycin and 3P (left panel). The firefly luciferase is expressed in vitro (90 min) adding z-labeled biotinylated lysine-tRNAs to the reaction. After incubation with streptavidin-HRP, the protein is visualized by chemiluminescence.
# To date, no structural data are available for puromycin binding in complex with the eukaryotic ribosome, while the bonding of a puromycin derivative in bacterial ribosome is well described^49. […] In particular, we tested the effect of 3P on an in vitro-cell free translation system (hereinafter called “IVTT euk-mix”: TNT Quick coupled Transcription/Translation System, Promega #L2881) using a firefly luciferase gene (Promega #L4741). […] After 90 minutes of incubation, we monitored the protein production by SDS-PAGE and luminescence assay (FIG. 9). […]
# The luciferase translation efficiency was monitored by means of luminescence signal using the Bright-Glo™ Luciferase Assay System (Promega, E2610) and the Infinite 200 PRO reader (Tecan), according to the manufacturer's instruction. […]
SMILES,effect on EGFP expression (free in solution) (IVTT euk-mix),"b of best fit y=A*exp(−x/b) of luciferase expression as a function of concentration (A=100) ([1]; concentrations 0, 0.01, 0.1, 1, 10 μM, n=3)","protein synthesis upon titration ([1]; firefly luciferase, 90 minutes, 0-10 μM)"
COC(=O)C[C@](O)(CCC(C)(C)O)C(=O)O[C@@H]1C(OC)=C[C@]23CCCN2CCc2cc4c(cc2[C@H]13)OCO4 [harringtonine],inhibitory effect,,
COc1ccc(C[C@H](N)C(=O)N[C@H]2[C@@H](O)[C@H](n3cnc4c(N(C)C)ncnc43)O[C@@H]2CO)cc1 [puromycin],,0.020±0.003,exponential decay of the protein synthesis
